The source of these data is ChEMBL document CHEMBL4715749, “Synthesis of 17β-N-arylcarbamoylandrost-4-en-3-one derivatives and their anti-proliferative effect on human androgen-sensitive LNCaP cell line” (Eur J Med Chem, 2016).

Data set [1] deals with LNCaP. Nature of the data set: Antiproliferative activity against androgen-sensitive human LNCAP cells assessed as inhibition of testosterone-induced cell growth at 50 uM incubated for 48 hrs by sulforhodamine B assay relative to control. Format: functional. For orientation: The SRB assay estimates cell density from bound dye.
The subject of data set [2] is LNCaP. Nature of the data set: Antiproliferative activity against androgen-sensitive human LNCAP cells assessed as inhibition of DHT-induced cell growth at 50 uM incubated for 48 hrs by sulforhodamine B assay relative to control. The data set is classed as functional.
The test system of data set [3] is LNCaP. The data set can be described thus: Antiproliferative activity against androgen-sensitive human LNCAP cells assessed as inhibition of cell growth at 50 uM incubated for 48 hrs by sulforhodamine B assay relative to control. The data set is classed as functional.
The nature of data set [4]: Cytotoxicity against Wistar rat PBMC assessed as inhibition of cell growth at 50 uM incubated for 24 hrs by sulforhodamine B assay relative to control. Format: tissue-based. The settings on record: for Activity: pbmc, 24 h, 50 µM; for inhibition at 24 h, 50 µM: Wistar, peripheral blood mononuclear cells (PBMC).
Data set [5] concerns PC-3. Nature of the data set: Growth inhibition of androgen-insensitive human PC3 cells incubated for 48 hrs by sulforhodamine B assay. The data set is classed as functional.
Data set [6] has as its system LNCaP. Nature of the data set: Growth inhibition of androgen-sensitive human LNCAP cells incubated for 48 hrs by sulforhodamine B assay. The data set is classed as functional.

The source made the active and inactive calls. No cut-off for these calls is given here.

On to `C[C@]12CC[C@H]3[C@@H](CCC4=CC(=O)CC[C@@]43C)[C@@H]1CC[C@@H]2C(=O)N1CCc2ccccc21`, for which the values for the inhibition at 50 µM in data set [1], in data set [2] and in data set [3] were 49.9%, 52.6% and 69.1%, respectively. For the same compound, the Activity entry in data set [4] is on record as “Non-Toxic”.
With `CC(=O)N1CCN(c2ccc(OCC3COC(Cn4ccnc4)(c4ccc(Cl)cc4Cl)O3)cc2)CC1` (centres undefined) [KETOCONAZOLE], the GI50 was found to be 11.7 µM in data set [5] and 25 µM in data set [6]. In addition, the values for the inhibition at 50 µM in data set [1], in data set [2] and in data set [3] were 76%, 68.2% and 82.7%, respectively.
Regarding `C[C@]12CC[C@H]3[C@@H](CCC4=CC(=O)CC[C@@]43C)[C@@H]1CC[C@@H]2C(=O)Nc1cc(C(F)(F)F)cc(C(F)(F)F)c1`, the GI50 in data set [5] was 14.2 µM; in data set [6] it was 12.8 µM. For the same compound, the inhibition at 50 µM in data set [1], in data set [2] and in data set [3] was 100% in each case. Besides, the inhibition at 24 h, 50 µM in data set [4] amounted to 9.1%.
`CC(C)(C)NC(=O)[C@H]1CC[C@H]2[C@@H]3CC[C@H]4NC(=O)C=C[C@]4(C)[C@H]3CC[C@]12C` [FINASTERIDE]: the inhibition at 50 µM in data set [1] stood at 21.1%; in data set [3], 34.6%. Moreover, in data set [2], the inhibition entry was “inactive”. Further, in data set [4], the inhibition at 24 h, 50 µM came out at 3.7%.
On to `CC(C)C(=O)Nc1ccc([N+](=O)[O-])c(C(F)(F)F)c1` [FLUTAMIDE], for which the results for the inhibition at 50 µM in data set [1], in data set [2] and in data set [3] were 29.6%, 25.1% and -3.4%, respectively. The Activity entry in data set [4] is recorded as “Non-Toxic”.
Turning to `C[C@]12CC[C@H]3[C@@H](CCC4=CC(=O)CC[C@@]43C)[C@@H]1CC[C@@H]2C(=O)Nc1nccs1`, the GI50 in data set [5] worked out at 6.6 µM; in data set [6] it was 16 µM. The inhibition at 50 µM in data set [1], in data set [2] and in data set [3] was 100% throughout. In addition, in data set [4], the inhibition at 24 h, 50 µM was determined as 16.8%.
With `C[C@]12CC[C@H]3[C@@H](CCC4=CC(=O)CC[C@@]43C)[C@@H]1CC[C@@H]2C(=O)Nc1ccc(F)cc1`, the inhibition at 50 µM in data set [1] was found to be 44.3%; in data set [2], 29%; in data set [3] it was 29.1%. Besides, in data set [4], the inhibition at 24 h, 50 µM came out at 4.1%.
The corresponding values for `C[C@]12CC[C@H]3[C@@H](CCC4=CC(=O)CC[C@@]43C)[C@@H]1CC[C@@H]2C(=O)Nc1ccccc1` are 66.2%, 59.4%, 40.9% and 8.7%.
As to `COc1ccc(NC(=O)[C@H]2CC[C@H]3[C@@H]4CCC5=CC(=O)CC[C@]5(C)[C@H]4CC[C@]23C)cc1`, the figures for the inhibition at 50 µM in data set [1], in data set [2] and in data set [3] were 38.6%, 29.7% and 48.7%, respectively. The inhibition at 24 h, 50 µM in data set [4] was 7.9%.
The corresponding values for `Cc1ccc(NC(=O)[C@H]2CC[C@H]3[C@@H]4CCC5=CC(=O)CC[C@]5(C)[C@H]4CC[C@]23C)cc1` are 43.3%, 27.5%, 25.6% and 13%.
Turning to `C[C@]12CC[C@H]3[C@@H](CCC4=CC(=O)CC[C@@]43C)[C@@H]1CC[C@@H]2C(=O)Nc1ccc(Cl)cc1`, the figures for the inhibition at 50 µM in data set [1], in data set [2] and in data set [3] were 1.6%, 13.4% and -6.1%, respectively. For the same compound, the Activity result in data set [4] was “Non-Toxic”.

One may read the inhibition as the change of the read-out against control, counted positive when it falls. A word on the GI50: it is the concentration at which growth is held to half of that of the control. Read a low GI50 as more potent growth inhibition.
